Assay results taken from patent US20130217664A1, “NOVEL COMPOUNDS USEFUL FOR THE TREATMENT OF DEGENERATIVE AND INFLAMMATORY DISEASES” (priority 2012, published 2013).
Read-outs that look alike come from different tables or passages of the source.

Experiments:
human JAK1 = target: T1, human JAK1 (Homo sapiens, UniProt P23458); experiment: JAK1 inhibition assay (polyGT substrate / Ulight-JAK1 peptide); type: biochemical; conditions: recombinant human JAK1 catalytic domain; polyGT or Ulight-JAK1 peptide assay
T1 construct: catalytic domain, amino acids 866-1154; catalog number PV4774; purchased Invitrogen PV4774
Method in brief: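 Signal scaled between vehicle and 10 μM staurosporine. Radiometric polyGT reactions ran 45 min at 30 °C, counted after phosphoric-acid stop. Ulight peptide reactions ran 60 min at room temperature, fluorescence read after adding Eu-PT66 detection mix with EDTA.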

human TYK2 = target: T2, human TYK2 (Homo sapiens, UniProt P29597); experiment: TYK2 inhibition assay; type: biochemical; conditions: recombinant human TYK2 catalytic domain, polyGT substrate
T2 construct: catalytic domain (amino acids 871-1187; catalog number 08-147); purchased Carna Biosciences 08-147
T2 sequence (P29597 871-1187): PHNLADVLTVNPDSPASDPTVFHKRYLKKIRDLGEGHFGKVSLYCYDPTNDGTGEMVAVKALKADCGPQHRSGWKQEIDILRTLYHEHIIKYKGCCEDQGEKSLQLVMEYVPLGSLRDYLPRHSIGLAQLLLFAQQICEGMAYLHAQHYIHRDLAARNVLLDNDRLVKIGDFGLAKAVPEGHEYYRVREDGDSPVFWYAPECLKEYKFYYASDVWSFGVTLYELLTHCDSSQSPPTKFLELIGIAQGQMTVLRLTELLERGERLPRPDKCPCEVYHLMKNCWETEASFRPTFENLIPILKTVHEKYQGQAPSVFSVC
Method in brief: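 Radiometric kinase reaction run 90 min at 30 °C, stopped with phosphoric acid, washed and scintillation-counted.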

BA/F3 cell line = experiment: BA/F3 viability assay; conditions: Mus musculus, BaF3, 48 h, read-out: BA/F3 IC50
[1] = system: pSTAT1(2)-luciferase reporter in HeLa cells triggered with human OSM; experiment: JAK-STAT signalling assay; type: cell-based; conditions: HeLa cells, pSTAT1(2)-luciferase reporter, human OSM 33 ng/mL, read-out: JAK-STAT IC50
Method in brief: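 Compound added 60 min before 33 ng/mL (final) human OSM; after overnight stimulation at 37 °C, luciferase signal from a transiently transfected pSTAT1(2) reporter in HeLa cells was read, with LacZ as internal control. EC50 derived from percent-inhibition dose-response curves.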

human JAK3 = target: T3, human JAK3 (Homo sapiens, UniProt P52333); experiment: JAK3 inhibition assay; type: biochemical; conditions: recombinant human JAK3 catalytic domain; polyGT substrate
T3 construct: catalytic domain (amino acids 781-1124; catalog number PV3855); purchased Invitrogen PV3855
Method in brief: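 Radiometric kinase assay: 0.5 ng JAK3 with 2.5 μg polyGT in Tris pH 7.5/MgCl2 buffer, 1 μM ATP plus 0.25 μCi 33P-γ-ATP, 1% DMSO, 45 min at 30 °C, stopped with phosphoric acid.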

CTLL-2 cell line = experiment: CTLL2 viability assay; type: cell-based; conditions: Mus musculus, IL-2 dependent CTLL2 viability, 24 h, ATP-lite
Source text: The protocol describes the methods to analyse the activity of compounds on their ability to sustain the IL2-dependent viability of CTLL2.
Final DMSO concentration was 0.1%.

T1 sequence (P23458 866-1154): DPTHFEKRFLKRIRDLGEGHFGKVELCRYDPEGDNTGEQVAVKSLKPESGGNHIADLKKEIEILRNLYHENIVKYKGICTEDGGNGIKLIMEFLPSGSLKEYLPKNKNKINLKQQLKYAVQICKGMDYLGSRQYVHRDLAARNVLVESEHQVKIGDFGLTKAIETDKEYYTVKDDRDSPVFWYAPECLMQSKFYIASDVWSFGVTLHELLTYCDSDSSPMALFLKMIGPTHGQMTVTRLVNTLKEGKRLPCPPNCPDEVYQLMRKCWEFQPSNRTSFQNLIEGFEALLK
T3 sequence (P52333 781-1124): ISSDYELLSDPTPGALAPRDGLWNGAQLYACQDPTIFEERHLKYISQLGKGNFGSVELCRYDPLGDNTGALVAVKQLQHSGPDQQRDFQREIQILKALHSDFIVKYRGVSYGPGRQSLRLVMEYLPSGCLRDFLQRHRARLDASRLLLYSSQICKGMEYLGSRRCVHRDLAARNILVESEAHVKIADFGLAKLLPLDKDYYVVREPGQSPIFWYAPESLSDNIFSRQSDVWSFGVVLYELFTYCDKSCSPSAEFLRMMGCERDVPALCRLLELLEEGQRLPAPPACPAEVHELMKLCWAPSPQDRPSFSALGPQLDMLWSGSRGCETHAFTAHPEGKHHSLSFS

Structure (SMILES) | IC50 (human JAK1) [nM] | IC50 (human TYK2) [nM] | IC50 (BA/F3 cell line) [nM] | IC50 ([1]; Homo sapiens, HeLa) [nM] | IC50 (human JAK3) [nM] | IC50 (CTLL-2 cell line) [nM] | IC50 [1] [nM]
CCc1cc(CNS(=O)(=O)CC(F)(F)F)ccc1N(C)c1cc2c(cn1)ncn2C [Compound 244, N-(3-ethyl-4-(methyl(1-methyl-1H-imidazo[4,5-c]pyridin-6-yl)amino)benzyl)-2,2,2-trifluoroethane sulfonamide] | 0.01 to 100 | 0.01 to 100 | 1000 to 5000 | 1 to 500 | 0.01 to 100 | > 1000 | –
CCc1cc(CNS(=O)(=O)C(C)C)ccc1N(C)c1cc2c(cn1)ncn2C [Compound 245, N-(3-ethyl-4-(methyl(1-methyl-1H-imidazo[4,5-c]pyridin-6-yl)amino)benzyl)propane-2-sulfonamide] | 0.01 to 100 | 101 to 500 | 1000 to 5000 | 501 to 1000 | 101 to 500 | > 1000 | –
CCc1cc(C2=CCN(C(=O)[C@@H](C)O)CC2)ccc1N(C)c1cc2c(cn1)ncn2C [Compound 248, (R)-1-(4-(3-ethyl-4-(methyl(1-methyl-1H-imidazo[4,5-c]pyridin-6-yl)amino)phenyl)-5,6-dihydropyridin-1(2H)-yl)-2-hydroxypropan-1-one] | 0.01 to 100 | 0.01 to 100 | 1000 to 5000 | 1 to 500 | 0.01 to 100 | > 1000 | –
CCc1cc(CNS(=O)(=O)CC)ccc1N(C)c1cc2c(cn1)ncn2C [Compound 253, N-(3-ethyl-4-(methyl(1-methyl-1H-imidazo[4,5-c]pyridin-6-yl)amino)benzyl)ethane-sulfonamide] | 0.01 to 100 | 0.01 to 100 | > 5000 | 1 to 500 | 0.01 to 100 | > 1000 | –
CCc1cc(CNC(=O)COC)ccc1N(C)c1cc2c(cn1)ncn2C [Compound 254, N-(3-Ethyl-4-(methyl(1-methyl-1H-imidazo[4,5-c]pyridin-6-yl)amino)benzyl)-2-methoxyacetamide] | 0.01 to 100 | > 1000 | > 5000 | > 1000 | > 1000 | > 1000 | –
CCc1cc(CNC(=O)C(F)F)ccc1N(C)c1cc2c(cn1)ncn2C [Compound 256, N-(3-ethyl-4-(methyl(1-methyl-1H-imidazo[4,5-c]pyridin-6-yl)amino)benzyl)-2,2-difluoroacetamide] | 0.01 to 100 | 101 to 500 | > 5000 | 1 to 500 | 0.01 to 100 | > 1000 | –
CCc1cc(CN2CCCS2(=O)=O)ccc1N(C)c1cc2c(cn1)ncn2C [Compound 262, [4-(1,1-Dioxoisothiazolidin-2-ylmethyl)-2-ethyl-phenyl]-methyl-(1-methyl-1H-imidazo[4,5-c]pyridin-6-yl)-amine] | 0.01 to 100 | 101 to 500 | 1000 to 5000 | – | 101 to 500 | > 1000 | 1 to 500
CN(c1cc2c(cn1)ncn2C)c1ccc(-c2cnn(C)c2)cc1OC(F)F [Compound 274, N-(2-(Difluoromethoxy)-4-(1-methyl-1H-pyrazol-4-yl)phenyl)-N,1-dimethyl-1H-imidazo[4,5-c]pyridin-6-amine] | 0.01 to 100 | 0.01 to 100 | 1000 to 5000 | – | 101 to 500 | > 1000 | 1 to 500
CCc1cc(-c2cnn(C)c2)ncc1N(C)c1cc2c(cn1)ncn2C [Compound 280, N-(4-Ethyl-6-(1-methyl-1H-pyrazol-4-yl)pyridin-3-yl)-N,1-dimethyl-1H-imidazo[4,5-c]pyridin-6-amine] | 0.01 to 100 | 101 to 500 | > 5000 | – | > 1000 | > 1000 | > 1000
